Experimental findings from US8637525B2, “Compounds for the reduction of beta-amyloid production” (Bristol-Myers Squibb Company, priority 2009, dated 2014) are described below.

One may read the IC50 as the concentration at which inhibition is half-maximal.

The subject of this test is Aβ1-42 production. Briefly: Cellular assay for inhibition of Aβ1-42 production (H4 APP751 SWE clone 8.20). The class given is cell-based. To be noted: H4 APP751 SWE clone 8.20 cells, 19 h incubation. The essentials:
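Secreted peptide was quantified with a two-antibody homogeneous format combining Wallac-labelled 565, which recognises the Aβ42 end, and APC-labelled 26D6 at 0.8 and 75 ng/well respectively. Antibodies were diluted in 40 mM Tris-HCl, pH 7.4, 0.2% BSA and left overnight at 4 °C after a 19 h compound incubation.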

[1] abbreviates: class symbols, read-out: Activity Rating (Aβ42 cellular IC50).
Where [2] appears, read: 19 h, read-out: Activity Rating (Aβ42 cellular IC50), numeric value.
Where [3] appears, read: 19 h, class symbols, read-out: Activity Rating (Aβ42 cellular IC50).

Where two headings read alike, the source gives them in different places.

For `CCN(C)c1nc(Nc2ccc(-n3cnc(Cl)c3)c(OC)c2)nc2c1COCC2c1ccccc1` (single isomer, unassigned) [Example 52A, N^2-(4-(4-Chloro-1H-imidazol-1-yl)-3-methoxyphenyl)-N^4-ethyl-N^4-methyl-8-phenyl-7,8-dihydro-5H-pyrano[4,3-d]pyrimidine-2,4-diamine], the half-inhibitory concentration (IC50) under setting [1] was 1.5 to 9.9 nM.

As for `COc1cc(Nc2nc3c(c(N(C)C)n2)COCC3c2ccc(Cl)cc2)ccc1-n1cnc(Cl)c1` (single isomer, unassigned) [Example 65B, N^2-(4-(4-chloro-1H-imidazol-1-yl)-3-methoxyphenyl)-8-(4-chlorophenyl)-N^4,N^4-dimethyl-7,8-dihydro-5H-pyrano[4,3-d]pyrimidine-2,4-diamine], the IC50 (read-out: Activity Rating (Aβ42 cellular IC50), numeric value) is 160 nM.

Regarding `COc1cc(Nc2nc3c(c(N4CC(F)(F)C4)n2)COCC3c2ccc(Cl)cc2)ccc1-n1cnc(Cl)c1` (single isomer, unassigned) [Example 66A, N-(4-(4-chloro-1H-imidazol-1-yl)-3-methoxyphenyl)-8-(4-chlorophenyl)-4-(3,3-difluoroazetidin-1-yl)-7,8-dihydro-5H-pyrano[4,3-d]pyrimidin-2-amine], the half-inhibitory concentration (IC50) under setting [1] lay in the range of 100 to 1000 nM.

With `COc1cc(Nc2nc3c(c(N4CCC(F)C4)n2)COCC3c2ccc(F)cc2)ccc1-n1cnc(Cl)c1` (stereo in doubt) [Example 58B, N-(4-(4-chloro-1H-imidazol-1-yl)-3-methoxyphenyl)-8-(4-fluorophenyl)-4-((S)-3-fluoropyrrolidin-1-yl)-7,8-dihydro-5H-pyrano[4,3-d]pyrimidin-2-amine], the half-maximal inhibitory concentration (IC50) under setting [2] was found to be 120 nM.

Regarding `CNc1nc(Nc2ccc(-n3cnc(Cl)c3)c(OC)c2)nc2c1CCC2c1cc(F)cc(F)c1` (centres unmarked) [Example 102B, N^2-(4-(4-Chloro-1H-imidazol-1-yl)-3-methoxyphenyl)-7-(3,5-difluorophenyl)-N^4-methyl-6,7-dihydro-5H-cyclopenta[d]pyrimidine-2,4-diamine], under setting [1], the IC50 was 10 to 100 nM.

Turning to `COc1cc(Nc2nc(NCCCO)c3c(n2)C(c2ccc(F)cc2)CC3)ccc1-n1cnc(Cl)c1` (racemic) [Example 43, 3-(2-(4-(4-chloro-1H-imidazol-1-yl)-3-methoxyphenylamino)-7-(4-fluorophenyl)-6,7-dihydro-5H-cyclopenta[d]pyrimidin-4-ylamino)propan-1-ol], the IC50 under setting [3] was 1.5 to 9.9 nM.

With `CCNc1nc(Nc2ccc(-n3ncnc3C)c(F)c2)nc2c1CN(C(=O)C1CC1)CC2c1ccccc1` (centres unmarked) [Example 144B, cyclopropyl(4-(ethylamino)-2-(3-fluoro-4-(5-methyl-1H-1,2,4-triazol-1-yl)phenylamino)-8-phenyl-7,8-dihydropyrido[4,3-d]pyrimidin-6(5H)-yl)methanone], the IC50 under setting [2] came to 540 nM.

For `CNc1nc(Nc2cccc(C#N)c2)nc2c1CCC2c1ccccc1` (centres unmarked) [Example 233, 3-(4-(methylamino)-7-phenyl-6,7-dihydro-5H-cyclopenta[d]pyrimidin-2-ylamino)benzonitrile], the IC50 under setting [3] was > 1000 nM.

As to `COc1cc(Nc2nc3c(c(N(C)C)n2)CCC3c2ccccc2)ccc1-n1cnc(Cl)c1` (single isomer, unassigned) [Example 4A, N^2-(4-(4-chloro-1H-imidazol-1-yl)-3-methoxyphenyl)-N^4,N^4-dimethyl-7-phenyl-6,7-dihydro-5H-cyclopenta[d]pyrimidine-2,4-diamine], the IC50 under setting [1] lay in the range of 1.5 to 9.9 nM.

With `CNc1nc(Nc2ccc(-n3cnc(Cl)c3)c(OC)c2)nc2c1CCC2c1cc(F)c(F)c(F)c1` (racemic) [Example 103, N^2-(4-(4-chloro-1H-imidazol-1-yl)-3-methoxyphenyl)-N^4-methyl-7-(3,4,5-trifluorophenyl)-6,7-dihydro-5H-cyclopenta[d]pyrimidine-2,4-diamine], the IC50 under setting [3] was 1.5 to 9.9 nM.

Turning to `CC#Cc1ccc(Nc2nc(NC)c3c(n2)C(c2ccc(F)cc2)CC3)cc1` (centres unmarked) [Example 260, 7-(4-fluorophenyl)-N4-methyl-N2-(4-(prop-1-ynyl)phenyl)-6,7-dihydro-5H-cyclopenta[d]pyrimidine-2,4-diamine], under setting [2], the IC50 stood at 860 nM.
